Laboratory results: patent US8143403B2 (Bristol-Myers Squibb Company, priority 2008, dated 2012)
Marks after values point to notes of the source that are not given here.

Columns and labels:
[1] = biological target: T1, Human CGRP Receptor (Homo sapiens, UniProt O60894+Q16602); experiment: Radioligand binding assay, [125I]-CGRP displacement on SK-N-MC membranes; conditions: displacement of [125I]-CGRP (18 pM final), 2 h room temperature
T1 construct: Crude membranes were prepared from SK-N-MC cells expressing CGRP receptors; endogenous in cells; host or cells: SK-N-MC cells (crude membranes)
Protocol: Tissue Culture. SK-N-MC cells were grown at 37° C. in 5% CO2 as a monolayer in medium consisting of MEM with Earle's salts and L-glutamine (Invitrogen) supplemented with 10% fetal bovine serum (Invitrogen).
Membrane Preparation. Crude membranes were prepared from SK-N-MC cells expressing CGRP receptors. The cells were rinsed twice with phosphate-buffered saline (155 mM NaCl, 3.3 mM Na2HPO4, 1.1 mM KH2PO4, pH 7.4), and incubated for 5-10 min. at 4° C. in hypotonic lysis buffer consisting of 10 mM Tris (pH 7.4) and 5 mM EDTA. The cells were transferred from plates to polypropylene tubes (16×100 mm) and homogenized using a polytron. Homogenates were centrifuged at 32,000×g for 30 min. The pellets were resuspended in cold hypotonic lysis buffer with 0.1% mammalian protease inhibitor cocktail (Sigma) and assayed for protein concentration. The SK-N-MC homogenate was aliquoted and stored at −80° C. Radioligand Binding Assay. The compounds of invention were solubilized and carried through serial dilutions using 100% DMSO. Aliquots from the compound serial dilutions were further diluted 25 fold into assay buffer (50 mM Tris-Cl pH 7.5, 5 mM MgCl2, 0.005% Triton X-100) and transferred (volume 50 μl) into 96 well assay plates. [^125I]-CGRP (GE Healthcare or Perkin-Elmer) was diluted to 72 pM in assay buffer and a volume of 50 μl was added to each well. SK-N-MC membranes were thawed, diluted in assay buffer with fresh 0.1% mammalian protease inhibitor cocktail (Sigma), and re-homogenized. SK-N-MC homogenate (7 μg/well) was added in a volume of 100 μl. The assay plates were then incubated at room temperature for 2 h. Assays were stopped by addition of excess cold wash buffer (50 mM Tris-Cl pH 7.5, 0.1% BSA) immediately followed by filtration over glass fiber filters (Whatman GF/B) previously soaked in 0.5% PEI. Non-specific binding was defined with 1 μM beta-CGRP (Bachem). Protein bound radioactivity was determined using a gamma or scintillation counter. The resulting data was analyzed using a four parameter competitive binding equation (XLfit v2.0) and the IC50 was defined as the concentration of a compound of invention required to displace 50% of radioligand binding. Final assay concentration of [^125I]-CGRP was 18 pM. […] All compounds of invention were evaluated in at least two separate experiments.

[2] = system: CGRP-induced increase in laser Doppler facial blood flow; experiment: Inhibition of CGRP-induced increase in laser Doppler facial blood flow in non-human primate; type: in vivo, common marmoset (Callithrix jacchus); conditions: pretreat −30 min, hαCGRP 10 μg/kg i.v.
Protocol: FIG. 4. […] Data are peak % change from baseline±sem, with each animal serving as its own control.
Saturation/Scatchard Analysis. […] Saturation data were analyzed using a one site binding equation to estimate apparent equilibrium dissociation constant (Kd) and the maximum number of binding sites (Bmax) (Prizm v4.0, Graphpad). […] Functional Antagonism/Schild analysis. Agonist stimulation of CGRP receptor complex leads to cyclic AMP (adenosine 3′5′-cyclic monophosphate) production via Gs-dependent activation of an adenylate cyclase (Juaneda C et al., TiPS, 2000; 21:432-438). Consequently, CGRP receptor antagonists inhibit CGRP-induced cyclic AMP formation in SK-N-MC cells which natively express the CGRP receptor complex (Doods H et al., Br J Pharmacol, 2000; 129(3):420-423). […] A Schild analysis format was used, which allowed investigation of the mechanism of antagonism. […] Various concentrations of CGRP were added and the cells were allowed to incubate 30 min at room temperature. The cells were lysed with lysis reagent and cAMP concentrations were determined by HTRF according to the manufacturer's instructions. A standard curve using known quantities of cAMP was evaluated in parallel to allow conversion of HTRF ratio to nM cAMP. The resulting curves were then evaluated using a Gaddum/Schild equation individually and with global fitting (Prizm v4.0, Graphpad). […] To obtain a global fit the following parameters were shared (top, bottom, logEC50, Hill slope and pA2) and all curves were fit simultaneously. […] Non-Terminal Method for Assessing In Vivo Efficacy of Small Molecule CGRP-Receptor Antagonists in Mammals Overview. […] Non-human primates (e.g., marmosets) are the only animals known to have human-like CGRP receptor pharmacology conferred by the presence of the specific amino acid residue (Trp74) in their RAMP1 sequence which is responsible for the phenotype of the human receptor (Mallee et al. J Biol Chem 2002 277:14294). Since current migraine models primarily use rats (Escott et al. Brain Res 1995 669:93; Williamson et al. Cephalalgia 1997 17:525), or are invasive, terminal procedures in primates (Doods et al. Br J Pharmacol 2000 129:420), a novel non-invasive, survival model in non-human primates for in vivo efficacy assessment of CGRP-receptor antagonists was developed. […] Peptide and small-molecule CGRP-receptor antagonists were used to validate the non-human primate model. […] Animals. Adult male and female common marmosets (Callithrix jacchus) purchased from Harlan and weighing 350-550 g served as subjects. Anesthesia & Surgical Preparation. Animals are anesthetized by isoflurane inhalation in an induction chamber (4-5% rapid induction, maintained with 1-2.5%; Solomon et al., 1999).

T1 sequence (Q16602 23-461): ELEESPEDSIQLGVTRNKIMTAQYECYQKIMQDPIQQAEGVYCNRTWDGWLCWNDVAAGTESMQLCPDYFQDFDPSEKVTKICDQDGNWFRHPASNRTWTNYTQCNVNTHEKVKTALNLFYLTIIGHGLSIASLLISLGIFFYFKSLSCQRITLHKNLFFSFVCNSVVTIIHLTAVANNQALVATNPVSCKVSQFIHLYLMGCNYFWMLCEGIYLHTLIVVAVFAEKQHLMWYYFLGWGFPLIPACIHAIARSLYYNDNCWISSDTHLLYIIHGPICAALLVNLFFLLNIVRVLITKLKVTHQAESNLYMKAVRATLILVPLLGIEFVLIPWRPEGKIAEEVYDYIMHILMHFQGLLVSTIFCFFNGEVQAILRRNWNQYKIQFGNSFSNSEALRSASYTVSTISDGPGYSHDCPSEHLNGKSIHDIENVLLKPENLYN
T1 sequence (O60894 27-148): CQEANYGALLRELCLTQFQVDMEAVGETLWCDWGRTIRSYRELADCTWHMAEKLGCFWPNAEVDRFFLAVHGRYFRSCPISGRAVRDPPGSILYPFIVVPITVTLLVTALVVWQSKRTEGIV

## O=C(O[C@@H]1CC[C@@H](c2cccc(F)c2F)Cc2cccnc21)N1CCC(n2c(=O)[nH]c3ncccc32)CC1 [Example 20]
[1]
  IC50: 0.12 nM
[2]; 0.1 mg/kg s.c., 15 min
  % Inhibition: 9.9%
[2]; 0.1 mg/kg s.c., 60 min
  % Inhibition: −6.7%
[2]; 0.1 mg/kg s.c., 105 min
  % Inhibition: −4.9%
[2]; 0.3 mg/kg s.c., 15 min
  % Inhibition: 28.8%
[2]; 0.3 mg/kg s.c., 60 min
  % Inhibition: 27.6* %
[2]; 0.3 mg/kg s.c., 105 min
  % Inhibition: 41.2* %
[2]; 3 mg/kg s.c., 15 min
  % Inhibition: 26.5%
[2]; 3 mg/kg s.c., 60 min
  % Inhibition: 36.7* %
[2]; 3 mg/kg s.c., 105 min
  % Inhibition: 39.0* %
[2]; 7 mg/kg s.c., 15 min
  % Inhibition: 25.1%
[2]; 7 mg/kg s.c., 60 min
  % Inhibition: 53.9* %
[2]; 7 mg/kg s.c., 105 min
  % Inhibition: 70.0* %
